This test relates to Blumeria graminis f. sp. hordei. Kind of test: Test on the controlling effect against powdery mildew of barley plant. The class given is in vivo. The conditions noted are these: barley plant (Kantoh No. 6), foliar application, active-ingredient concentration 200 ppm, application rate 50 mL, 7 days after inoculation. The text has this: Equation (1): Protective value (%)=A/B×100 (1) where: • A; [(Ratio of the afflicted spotted leaf surface area in non-treated section to the total leaf surface area)−(Ratio of the afflicted spotted leaf surface area in treated section to the total leaf surface area)] • B; (Ratio of the afflicted spotted leaf surface area in non-treated section to the total leaf surface area) Criteria of Judgment: 0: Less than […] in protective value 1: 10 to 19% in protective value 2: 20 to 29% in protective value 3: 30 to 39% in protective value 4: 40 to 49% in protective value 5: 50 to 59% in protective value 6: 60 to 69% in protective value 7: 70 to 79% in protective value 8: 80 to 89% in protective value 9: 90 to 99% in protective value 10: 100% in protective value A one-leaf aged barley plant (the cultivar: Kantoh No. 6) raised as a seedling in a pot of 6 cm in diameter was subjected to foliar application with a diluted emulsion of the emulsifiable concentrate of the compound of the present invention prepared in accordance with Agrochemical Formulation Example 1, which diluted emulsion was produced by diluting the concentrate with water to the specifically determined volume. […] Seven days after the inoculation, the controlling effect was assessed according the criteria of judgment as set forth in Test Example 1.

Consider `O=C(Nc1ccccc1-c1ccc(Cl)cc1)c1cccnc1Cl` [Control Compound C, 2-Chloro-N-(4′-chlorobiphenyl-2-yl)-nicotinamide], for which the “controlling effect assessed according to the criteria of judgment” value is reported as 4 (40 to 49% in protective value).

Source of the values: US8168638B2, “Pyrazinecarboxamide derivatives and plant disease controlling agents containing the same” (Nihon Nohyaku Co., Ltd., priority 2005, dated 2012).
